Results published in US20050170345A1, “Neuroglobin is up-regulated by and protects neurons from hypoxic-ischemic injury” (priority 2001, published 2005).
Entries after “also recorded” stand apart in the source; their conditions may differ. Read-outs that look alike come from different tables or passages of the source. {Fluorescein} = fluorescein label

Legend:
[1] = system: vascular endothelial growth factor; conditions: aortic smooth muscle cells; cited from earlier work
Ngb protein = Ngb protein expression in HN33 cells (Western blot); type: cell-based, mouse; conditions: HN33 cells; for effect on induction of Ngb expression by hemin (Western blot): 1 h pretreatment then 50 μM hemin 24 h, LY83583 1 μM, KT5823 8 μM, GF109203X 10 μM, PD98059 20 μM
Procedure: (§1) HN33 cells were cultured as described (Lee et al. (1990) J Neurosci. 10: 1779-1787; Shi et al. (1998) J Neurochem., 70:1035-1044; Jin et al. (2000) Proc Nati Acad Sci USA., 97:10242-10247). Cells were plated at 4×10^5 cells/well onto uncoated, 6-well plastic culture dishes in Dulbecco's modified Eagle's medium containing 10% (v/v) fetal bovine serum, 100 units/ml of penicillin and 100 μg/ml of streptomycin, and maintained at 37° C. in humidified 95% air/5% CO2. Cells were treated with hemin (typically 50 μM) or 8-Br-cGMP (10 μM) for up to 3 days, without daily replacement. To suppress sGC or PKG activity, cells were pretreated for 1 hour with inhibitors before adding other reagents.
(§2) Cells were washed twice in PBS, and whole-cell extracts were prepared by adding 10 volumes of 1× sample buffer containing 2% SDS, 100 mM dithiothreitol, 60 mM Tris (pH 6.8) and 10% glycerol, and boiled for 5 minutes. Protein concentrations were determined using Bradford Protein Assays (Bio-Rad, Hercules, Calif.); 30 μg of protein was analyzed by 12% or 15% SDS-PAGE and transferred to Immuno-Blot PVDF membranes (Bio-Rad). Membranes were probed with affinity-purified anti-Ngb antibody, which was produced by immunizing with a synthetic peptide corresponding to amino-acids 35-50 (NH2-CLSSPEFLDHIRKVML-COOH, (SEQ ID NO:11) of mouse Ngb (Sun et aL (2001 Proc Natl Acad Sci USA. 98:15306-15311),and the signal was detected with Boehringer Mannheim chemiluminescence blotting kits. Differences in protein expression on Western blots were quantified using a GS-710 calibrated imaging densitometer and Quantity One software (Bio-Rad).

Ngb mRNA = Ngb mRNA expression in HN33 cells (RT-PCR, quantitative RT-PCR, Northern blot); type: cell-based, mouse; conditions: HN33 cells; for effect on hemin-induced Ngb expression at the mRNA level (quantitative RT-PCR): 1 h pretreatment then 50 μM hemin 24 h, LY83583 1 μM, KT5823 8 μM
Procedure: as §1
RT-PCR and Northern blot analyses were carried out as described previously (Zhu and Zhang (1999) Biochem Biophys Res Commun., 258:87-93). Briefly, total RNA from treated and untreated cells was extracted using a RNeasy Mini Kit (QIAGEN Operon, Valencia, Calif.), and DNA-free total RNA (2 μg per sample) was reverse-transcribed into first-strand cDNA using the Reverse Transcription System and Oligo-dT12-18 (GIBCO-BRL, Rockville, Md.) (Id.). Sequences of the primers used for PCR amplification were: Ngb forward, 5′ CTCTGGAACATGGCACTGTC 3′ (nt 135-154, SEQ ID NO:7); Ngb reverse, 5′ GCACTGGCTCGTCTCTTACT 3′ (nt 547-528, SEQ ID NO:8); β-actin forward, 5′ CACAGGCATTGTGATGGACTC 3′ (nt 524-544, SEQ ID NO:9); β-actin reverse, 5′ GCTCAGGAGGAGCAATGATCT 3′ (nt 582-563, (SEQ ID NO:10). Primers were designed based on the published sequences of these genes and were synth esized by QIAGEN Operon. All PCR primer pairs gave rise to only one discrete band of the expected size. PCR reactions were carried out in a total volume of 25 μl containing 2 μl cDNA, 1×PCR buffer (Boehringer Mannheim, Mannheim, FRG), 200 μM dNTPs, 0.6 U Taq DNA polymerase (Boehringer Mannheim), and 0.2 μM primers. The optimal conditions for amplification (temperature and cycle number) were determined experimentally according to previously published procedures (Id.). Different ratios of Ngb to b-actin primer pairs were tested to ensure that Ngb and b-actin were amplified with similar efficiency, and a kinetic study was undertaken to establish the number of cycles sufficient to detect both Ngb and b-actin without reaching saturation for either. The parameters chosen for PCR amplification were 95° C. for 1 minute, 57° C. for 45 seconds, 72° C. for 1 minute for 25-30 cycles, and a final incubation at 72° C. for 10 minutes. PCR products were separated on 1.2% agarose gels, visualized by ethidium bromide staining, and quantified using a ChemiImage System (Alpha Innotech Corporation, San Leandro, Calif.).
For Northern blotting, 15 μg of total RNA from each sample was fractionated on 1% formaldehyde/agarose gels and transferred to Hybond-N nylon membranes (Amersham Pharmacia, Piscataway, N.J.). Filters were hybridized with probes for Ngb MRNA, and β-actin mRNA at 68° C. in hybridization buffer (Clontech, Palo Alto, Calif.). ^32P-radiolabeled DNA probes were synthesized using cDNA obtained from RT-PCR amplification.
Quantitative RT-PCR analysis was carried out as described previously.8 PCR reactions were carried out in a total volume of 25 μl containing 1 μI cDNA, 1×PCR buffer (Boehringer Mannheim), 200 μM dNTPs, 0.6 U Taq DNA polymerase (Boehringer Mannheim), two pairs of primers (one pair for the Ngb gene, another for the b-actin gene used as an internal control). The optimal conditions for amplification (the proportion between the two pairs of primers, temperatures, and cycle numbers) were determined experimentally according to previously established procedures.8 PCR products were separated on 1.2% agarose gels, visualized by ethidium bromide staining, and quantified using a ChemiImage System (Alpha Innotech Corporation).

Ngb [2] = assay: Hypoxia-induced Ngb expression in HN33 cells pretreated with protein kinase inhibitors (Western blot); type: cell-based, mouse; conditions: inhibitor 1 hour then hypoxia (95% N2/5% CO2) 20 hours
Procedure: FIGS. 10A and 10B show the effects of protein kinase inhibitors on hypoxia-induced Ngb expression. HN33 cells were treated with protein kinase inhibitors at the indicated concentrations for 1 hour, and then exposed to hypoxia (95% N2/5% CO2) for 20 hours. Western blotting was used to detect Ngb protein expression (FIG. 10A), which was quantified by computer densitometry (FIG. 10B). Data are representative blots (top) or means±SEM (bottom) from 3 experiments. *P<0.05 for drug treatment relative to hypoxia alone.
as §2

Ngb [3] = assay: Ngb expression in cultured cortical neurons treated with hypoxia mimetics or other stressors (Western blot); type: cell-based, mouse
[4] = system: 17-20 kDa caspase-3 cleavage product; assay: Caspase-3 cleavage product immunofluorescence in ODN-transfected cortical neurons; type: cell-based, mouse; conditions: fluorescence microscopy, hypoxic cortical neurons
Procedure: Cultures were fixed with 4% paraformaldehyde and incubated over night at 4° C. with one or more of the following primary antibodies: rabbit polyclonal anti-Ngb (1:200), mouse monoclonal anti-NeuN (1:200, Chemicon), and rabbit polyclonal anti-17-20 kDa caspase-3 cleavage product (1:100, New England Biolabs). The secondary antibodies (all 1:200) were fluorescein isothiocyanate-conjugated goat anti-rabbit or anti-mouse IgG (Vector) and rhodamine-conjugated donkey anti-rabbit IgG (Jackson ImmunoResearch). Controls for non-specific binding included omitting primary (FIG. 1C) or secondary antibodies. In addition, in some cultures, nuclei were labeled with 4′,6-diamidino-2-phenylindole (DAPI) or DNA strand breaks were labeled with the Klenow fragment of DNA polymerase I (Roche) followed by rhodamine avidin D (Vector), as described (Jin et al. (1999) J Neurochem 72: 1204-1214). Fluorescence signals were detected with a Nikon E800 epifluorescence microscope using excitation/emission wavelengths of 535/565 nm for rhodamine (red), 470/505 nm for fluorescein isothiocyanate (green) and 360/400 nm for DAPI (blue). Results were recorded with a Magnifire digital color camera (Optronics). […]

Nc1nc2c(nc(Br)n2[C@@H]2O[C@@H]3COP(=O)(O)O[C@H]3[C@H]2O)c(=O)[nH]1 [8-Br-cGMP]
effect on hypoxic induction of vascular endothelial growth factor [1]: suppress
inductive effect of hemin on neuroglobin reproduced by the agent (Ngb protein): mimicked
increase in Ngb protein expression (Ngb protein; 10 μM 8-Br-cGMP, 2-24 h): 2- to 2.5 fold
increase in Ngb mRNA expression (Ngb mRNA; 10 μM 8-Br-cGMP, 2-24 h): 3- to 4 fold

COC(=O)[C@@]1(OC)C[C@H]2O[C@]1(C)n1c3ccccc3c3c4c(c5c6ccccc6n2c5c31)C(=O)N(C)C4 [KT5823]
effect on hypoxic induction of Ngb (Ngb [2]): not blocked
effect on induction of Ngb expression by hemin (Western blot) (Ngb protein): attenuated; also recorded: significantly diminished
effect on hemin-induced Ngb expression at the mRNA level (quantitative RT-PCR) (Ngb mRNA): significantly inhibited

CN[C@@H]1C[C@H]2O[C@@](C)([C@@H]1OC)n1c3ccccc3c3c4c(c5c6ccccc6n2c5c31)C(=O)NC4 [staurosporine]
Ngb expression (Ngb [3]; cultured cortical neurons treated 24 h, 300 μM CoCl2 (Co2+), 100 μM Dfx, 0.1 μM staurosporine, 500 μM SNP, Western blot): did not increase Ngb expression; also recorded: no change

5′-ATG GAG CGC CCG GA-3′ (sense ATGGAGCGCCCGGA; DNA, 5' {Fluorescein}, backbone and methylation of C not given here) [sense ODN]
transfected cells co-expressing the 17-20 kDa caspase-3 cleavage product [4]: few

CN(C)CCCn1cc(C2=C(c3c[nH]c4ccccc34)C(=O)NC2=O)c2ccccc21 [GF109203X]
effect on induction of Ngb expression by hemin (Western blot) (Ngb protein): no significant effect

O=C1C(Nc2ccccc2)=CC(=O)c2ncccc21 [LY83583]
effect on hypoxic induction of Ngb (Ngb [2]): not blocked
effect on induction of Ngb expression by hemin (Western blot) (Ngb protein): attenuated; also recorded: significantly diminished
effect on hemin-induced Ngb expression at the mRNA level (quantitative RT-PCR) (Ngb mRNA): significantly inhibited

COc1cccc(-c2cc(=O)c3ccccc3o2)c1N [PD98059]
effect on hypoxic induction of Ngb (Ngb [2]): blocked
effect on induction of Ngb expression by hemin (Western blot) (Ngb protein): no significant effect

[Cl-].[Cl-].[Co+2] [CoCl2]
Ngb expression (Ngb [3]): increased Ngb expression
